From patent publication US20090023738A1, “DIAMINOPYRIMIDINES AS MODULATORS OF THE EP2 RECEPTOR” (priority 2007, published 2009)

Legend:
[1] = target: T1, EP2 subtype of the human PGE2 receptor (Homo sapiens, UniProt P43116); assay: cellular cAMP agonism assay; assay type: cell-based; conditions: without PGE2
T1 construct: host or cells: cells in a cell culture plate
Procedure: (§1) The binding of PGE2 to the EP2 subtype of the human PGE2 receptor induces activation of membrane-associated adenylate cyclases and leads to the formation of cAMP. In the presence of the phosphodiesterase inhibitor IBMX, cAMP which has accumulated due to this stimulation and been released by cell lysis is employed in a competitive detection method. In this assay, the cAMP in the lysate competes with cAMP-XL665 for binding of an Eu cryptate-labelled anti-cAMP antibody.
(§2) The two signals are measured in a suitable measuring instrument with a time lag, i.e. after the background fluorescence has declined.
1.2.2 Agonism Assay (Data for Each Well of a 384-Well Plate): […]
After incubation at room temperature (RT; volume: 15 μl) for 60 minutes, the reaction is then stopped by adding 5 μl of lysis buffer and incubated at RT for a further 20 min (volume: 20 μl). The cell lysate is then transferred into a measuring plate and measured in accordance with the manufacturer's information (cyclic AMP kit Cisbio International # 62AMPPEC).

[2] = target: T1, EP2 subtype of the human PGE2 receptor; assay: cAMP antagonism assay (EP2 receptor signal, HTRF cAMP detection); assay type: cell-based; conditions: in the presence of the agonist PGE2
Source text: 1. Detection of the Antagonism of the Human Prostaglandin E2 (Subtype EP2 Receptor Signal
as §1, §2
1.2.1 Antagonism Assay (Data for Each Well of a 384-Well plate): […]
After preincubation at room temperature (RT) for 30 minutes, 5 μl of a 4×PGE2 solution (11 nM) are added, and incubation is carried out in the presence of the agonist at RT for a further 60 min (volume: 20 μl) before the reaction is then stopped by adding 5 μl of lysis buffer and incubated at RT for a further 20 min (volume: ˜25 μl). The cell lysate is then transferred into a measuring plate and measured in accordance with the manufacturer's information (cyclic AMP kit Cisbio International # 62AMPPEC).

T1 sequence (P43116 whole entry): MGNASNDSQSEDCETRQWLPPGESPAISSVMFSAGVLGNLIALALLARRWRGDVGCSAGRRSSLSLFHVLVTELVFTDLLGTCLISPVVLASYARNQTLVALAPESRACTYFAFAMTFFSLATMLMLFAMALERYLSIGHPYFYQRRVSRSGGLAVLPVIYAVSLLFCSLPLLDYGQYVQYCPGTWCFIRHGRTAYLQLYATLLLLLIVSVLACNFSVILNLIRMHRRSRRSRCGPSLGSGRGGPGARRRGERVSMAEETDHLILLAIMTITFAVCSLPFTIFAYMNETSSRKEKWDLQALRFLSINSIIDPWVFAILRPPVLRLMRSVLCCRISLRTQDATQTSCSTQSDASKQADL

| effect in the cellular agonism test [1] | IC50 [2] [nM] | SMILES |
| --- | --- | --- |
| no inhibition | 1600 | Cc1[nH]c2c(F)ccc(C)c2c1CCNc1cc(NCc2cccnc2)ncn1 [Example 6, N-[2-(7-Fluoro-2,4-dimethyl-1H-indol-3-yl)ethyl]-N′-pyridin-3-ylmethylpyrimidine-4,6-diamine] |
|  | 1400 | Cc1[nH]c2c(F)ccc(C)c2c1CCNc1cc(NCc2ccccc2-c2ccccc2)ncn1 [Example 17, N-Biphenyl-2-ylmethyl-N′-[2-(7-fluoro-2,4-dimethyl-1H-indol-3-yl)ethyl]-pyrimidine-4,6-diamine] |
